According to paper PMC11274883, “Anticancer Effect of Pt^[sequence], Pt^II5MESS, Pt^II56MESS and Their Platinum(IV)-Dihydroxy Derivatives against Triple-Negative Breast Cancer and Cisplatin-Resistant Colorectal Cancer” (Cancers, 2024):

Legend:
HT29 cells [1] = test: TMRE mitochondrial membrane potential assay; format: cell-based; conditions: complexes at IC50, FCCP 20 µM
Procedure: (§1) Cells were then treated with an IC50 drug concentration for each complex. At 24, 48 or 72 h, DMEM was removed, and cells were washed with PBS. Then, cells were incubated with 1 µM tetramethylrhodamine, ethyl ester (TMRE) stain for 30 min. TMRE was then removed, and cells were washed twice with PBS (0.2% BSA), after which phenol red-free media was added. […] The cells were then stained with TMRE, as described above, and the resulting solution was scanned for fluorescence. Three independent experiments in triplicates were implemented.

MDA−MB−231 cells [2] = test: TMRE mitochondrial membrane potential assay; format: cell-based; conditions: complexes at IC50, FCCP 20 µM
Procedure: as §1

HT29 cells [3] = test: Label-free quantitative proteomics; format: cell-based, Homo Sapiens; conditions: HT29, IC50, 72 h
Procedure: (§2) The supernatant was then collected into 15 mL tubes, then the cells were washed with PBS and trypsinised. The detached cells were transferred to allocated tubes and centrifuged at 500× g for 5 min at 4 °C. Cell pellet was washed twice with PBS and then resuspended in 300 µL cell lysis buffer (RIPA) for 30 min on ice. Cell extracts were then centrifuged at 12,000× g for 15 min at 4 °C, and the supernatants (containing the proteins) were collected into Lo-Bind Eppendorf. The Bio-Rad protein assay (Bio-Rad, Hercules, CA, USA) was used to assess protein content. For protein extraction and delipidation 100 µL of the cell homogenate was moved to 1.7 mL Lo-Bind Eppendorf tubes and 450 µL methanol was added to the mixture and vortexed. Chloroform (150 µL) was next added and vortexed. Then, water (450 µL) was added to the mixture, vortexed and centrifuged for 5 min at 12,000× g, which formed the protein pellet at the organic/aqueous interface. The layer of chloroform was removed and then 400 µL of methanol was added. The sample was then vortexed and centrifuged at 12,000× g for 15 min. The supernatant was then aspirated and discarded. The pellet was then washed with methanol (400 µL). The supernatant was removed, and the pellets were air-dried overnight. Next, steps were performed for reduction, alkylation, and tryptic digestion of the protein. 0.1% RapiGest (Waters, Milford, MA, USA) in 50 mM aqueous ammonium bicarbonate (20 µL) was added to the air-dried pellet and vortexed for effective suspension. The pellet should completely dissolve. Then, 50 µL of 7 mM DTT in 50 mM aqueous ammonium bicarbonate was added, to give a final concentration of 5 mM DTT. Samples were then heated for 30 min at 60 °C and cooled to room temperature. Iodoacetamide (45 mM) in 50 mM aqueous ammonium bicarbonate was next added to give a concentration of 15 mM. The mixture was allowed to react in the dark for 30 min. Then, 10 ng/µL of Trypsin Gold, Mass spectrometry grade (Promega, NSW, Australia) was added for digestion to occur at room temperature overnight. And 50 µL of 4% (v/v) aqueous trifluoroacetic acid was then added to each tube. Samples were next heated for 45 min at 37 °C to effect decomposition of RapiGest. Samples were then centrifuged at 12,000× g for 10 min at 4 °C. Supernatants were then transferred to total recovery vials and run on a nanoAcquity Ultra-Performance Liquid Chromatography (UPLC) coupled with a Synapt G2-Si instrument (Waters, MA, USA) was used for label-free quantitative protein profiling. Nano-proteomics method is detailed in Method S1. Three independent experiments in triplicates were implemented, while all samples were analysed in a single run with a single injection (1 µL) for each trial. Mass spectrometry (MS) data were processed using Progenesis QI for proteomics (version 4.1, Nonlinear Dynamics, Newcastle upon Tyne, UK), and aligned using UniProt Homo Sapiens reference database IDEP9.6 utilised to cluster and retrieve the initial signature analyses. […] Enrichment studies were performed using gene lists that corresponded to the identified proteins. Overrepresentation analysis was performed based on Gene Ontology (GO) Biological Processes, GO Cellular Components, and GO Molecular Functions using iDEP. Enrichment maps and STRING apps were used to construct pathways networks and explore protein–protein interactions.

MDA−MB−231 cells [4] = test: Label-free quantitative proteomics; format: cell-based, Homo Sapiens; conditions: MDA−MB−231, IC50, 72 h, p < 0.05, fold change > 2
Procedure: as §2

HT29 = test: WST-1 cytotoxicity, 72 h; format: cell-based; conditions: for potency relative to cisplatin / IC50: HT29, 72 h; for IC50: mean ± SEM; for Selective cytotoxicity index (SCI): IC50 MCF10A/IC50 HT29
Procedure: (§3) Cells were seeded in 96-well flat-bottom culture plates at a concentration of 1000 cells per well. […] After 72 h, the medium was removed and replaced with new medium. The cell viability reagent WST-1 (10 µL, Roche Diagnostics, Indianapolis, IN, USA) was added to each well. After an hour, the absorbance was measured at 450 nm using a versatile microplate reader (Bio-strategy, Campbellfield, VIC, Australia). Three separate experiments were performed, each with n = 3 replicates. GraphPad prism 10 was used to calculate apparent IC50 values using the nonlinear regression model Y = Bottom + (Top-Bottom)/(1 + 10^(X-LogIC50)) where Top and bottom are plateaus in the y-axis (% survival).

MDA−MB−231 = test: WST-1 cytotoxicity, 72 h; format: cell-based; conditions: for Selective cytotoxicity index (SCI): IC50 MCF10A/IC50 MDA−MB−231; for potency relative to cisplatin / IC50: MDA−MB−231, 72 h; for IC50: mean ± SEM
Procedure: as §3

A2780 = test: WST-1 cytotoxicity, 72 h; format: cell-based; conditions: for potency relative to cisplatin / IC50: A2780, 72 h; for IC50: mean ± SEM; for Selective cytotoxicity index (SCI): IC50 MCF10A/IC50 A2780
Procedure: as §3

ADDP = test: WST-1 cytotoxicity, 72 h; format: cell-based; conditions: for potency relative to cisplatin / IC50: ADDP, 72 h; for IC50: mean ± SEM; for Selective cytotoxicity index (SCI): IC50 MCF10A/IC50 ADDP
Procedure: as §3

MCF−7 = test: WST-1 cytotoxicity, 72 h; format: cell-based; conditions: for Selective cytotoxicity index (SCI): IC50 MCF10A/IC50 MCF−7; for potency relative to cisplatin / IC50: MCF−7, 72 h; for IC50: mean ± SEM
Procedure: as §3

| Compound | MtMp (mitochondrial membrane potential) (HT29 cells [1]; HT29, 24 h) [RFU] | MtMp (mitochondrial membrane potential) (HT29 cells [1]; HT29, 48 h) [RFU] | MtMp (mitochondrial membrane potential) (HT29 cells [1]; HT29, 72 h) [RFU] | MtMp (mitochondrial membrane potential) (MDA−MB−231 cells [2]; MDA−MB−231, 24 h) [RFU] | MtMp (mitochondrial membrane potential) (MDA−MB−231 cells [2]; MDA−MB−231, 48 h) [RFU] | MtMp (mitochondrial membrane potential) (MDA−MB−231 cells [2]; MDA−MB−231, 72 h) [RFU] | number of downregulated differentially expressed proteins (MDA−MB−231 cells [4]) | number of upregulated differentially expressed proteins (MDA−MB−231 cells [4]) | potency relative to cisplatin (HT29) [fold] | IC50 (HT29) [µM] | Selective cytotoxicity index (SCI) (HT29) | Selective cytotoxicity index (SCI) (MDA−MB−231) | potency relative to cisplatin (MDA−MB−231) [fold] | IC50 (MDA−MB−231) [µM] | potency relative to cisplatin (A2780) [fold] | IC50 (A2780) [µM] | Selective cytotoxicity index (SCI) (A2780) | potency relative to cisplatin (ADDP) [fold] | IC50 (ADDP) [µM] | Selective cytotoxicity index (SCI) (ADDP) | other results |
| --- | --- | --- | --- | --- | --- | --- | --- | --- | --- | --- | --- | --- | --- | --- | --- | --- | --- | --- | --- | --- | --- |
| N[C@H]1CCCC[C@@H]1N.O=[N+]([O-])[O-].O=[N+]([O-])[O-].[OH-].[OH-].[Pt+4].c1cnc2c(c1)ccc1cccnc12 [[Pt(1,10-phenanthroline)(1S,2S-diaminocyclohexane)(dihydroxy)](NO3)2] | 312.19 | 261.95 | 215.58 | 297.56 | 257.95 | 179.38 | 5 | 9 | 17 | 4.48 ± 1.77 | 4.57 | 6.13 | 4 | 3.34 ± 1.37 | 3 | 6.49 ± 1.23 | 3.15 | 8 | 13.6 ± 1.57 | 1.49 | detected up and down differentially regulated proteins (HT29 cells [3]): no detected differentials; Selective cytotoxicity index (SCI) (MCF−7): 2.18; potency relative to cisplatin (MCF−7): 3 fold; IC50 (MCF−7): 9.39 ± 1.26 µM |
| N[C@H]1CCCC[C@@H]1N.O=[N+]([O-])[O-].O=[N+]([O-])[O-].[Pt+2].c1cnc2c(c1)ccc1cccnc12 [[Pt(1,10-phenanthroline)(1S,2S-diaminocyclohexane)](NO3)2] | 321.85 | 256.63 | 236.73 | 258.17 | 218.19 | 169.95 | 7 | 14 | 102 | 0.76 ± 1.47 | 4.59 | 3.45 | 13 | 1.01 ± 1.36 | 19 | 1.11 ± 1.88 | 3.14 | 44 | 2.55 ± 1.48 | 1.37 | number of downregulated differentially expressed proteins (HT29 cells [3]; p < 0.05, fold change > 2): 10; number of upregulated differentially expressed proteins (HT29 cells [3]; p < 0.05, fold change > 2): 9; Selective cytotoxicity index (SCI) (MCF−7): 1.91; potency relative to cisplatin (MCF−7): 18 fold; IC50 (MCF−7): 1.83 ± 2.12 µM |
